Measurements reported in ChEMBL document CHEMBL1255477, “In vitro properties of BAL30072, a novel siderophore sulfactam with activity against multiresistant gram-negative bacilli” (Antimicrob Agents Chemother, 2010).
The source made the active and inactive calls.

Tests used:
Pseudomonas aeruginosa [1] = assay: Antimicrobial activity against Pseudomonas aeruginosa BA by broth dilution method; format: functional; conditions: Pseudomonas aeruginosa, BA; read-out: MIC
Klebsiella pneumoniae [2] = assay: Antimicrobial activity against Klebsiella pneumoniae by broth dilution method; format: functional
[3] = test system: Stenotrophomonas maltophilia; assay: Antimicrobial activity against Stenotrophomonas maltophilia by broth dilution method; format: functional
Pseudomonas aeruginosa [4] = assay: Antimicrobial activity against oprD protein deficient Pseudomonas aeruginosa C2 by broth dilution method; format: functional
Pseudomonas aeruginosa [5] = assay: Antimicrobial activity against Pseudomonas aeruginosa B4 by broth dilution method; format: functional
Enterobacter cloacae [6] = assay: Antimicrobial activity against Enterobacter cloacae by broth dilution method; format: functional
Providencia rettgeri [7] = assay: Antimicrobial activity against Providencia rettgeri by broth dilution method; format: functional
Klebsiella oxytoca [8] = assay: Antimicrobial activity against Klebsiella oxytoca by broth dilution method; format: functional
Proteus penneri = assay: Antimicrobial activity against Proteus penneri by broth dilution method; format: functional
Pseudomonas aeruginosa [9] = assay: Antimicrobial activity against mexAB-oprM protein and mexCD-oprJ deficient Pseudomonas aeruginosa PAO253 overexpressing MexEF-OprN gene by broth dilution method; format: functional
Providencia stuartii = assay: Antimicrobial activity against Providencia stuartii by broth dilution method; format: functional
Klebsiella aerogenes = assay: Antimicrobial activity against Enterobacter aerogenes by broth dilution method; format: functional
Pseudomonas aeruginosa [10] = assay: Antimicrobial activity against mexAB-oprM protein and mexCD-oprJ deficient Pseudomonas aeruginosa PAO238 by broth dilution method; format: functional
Acinetobacter sp. = assay: Antimicrobial activity against Acinetobacter sp. by broth dilution method; format: functional
Pseudomonas aeruginosa [11] = assay: Antimicrobial activity against Pseudomonas aeruginosa by broth dilution method; format: functional
Escherichia coli [12] = assay: Antimicrobial activity against Escherichia coli by broth dilution method; format: functional
Pseudomonas aeruginosa [13] = assay: microbe, parasite or virus in culture; conditions: PAO1
Description: Antimicrobial activity against Pseudomonas aeruginosa PAO1 by broth dilution method

Pseudomonas aeruginosa [14] = assay: Antimicrobial activity against mexAB-oprM protein and mexZ deficient Pseudomonas aeruginosa PAO267 by broth dilution method; format: functional
Pseudomonas aeruginosa [15] = assay: Antimicrobial activity against Pseudomonas aeruginosa BA(C1-106) selected after 25 ug/ml of compound exposure by broth dilution method; format: functional
Proteus vulgaris = assay: Antimicrobial activity against Proteus vulgaris by broth dilution method; format: functional
Pseudomonas aeruginosa [16] = assay: Antimicrobial activity against mexAB-oprM, mexCD-oprJ, mexEF-oprN, mexJK, mexXY, opmH and pscC gene deficient Pseudomonas aeruginosa PAO750 by broth dilution method; format: functional
Proteus mirabilis = assay: Antimicrobial activity against Proteus mirabilis by broth dilution method; format: functional
Serratia marcescens [17] = assay: Antimicrobial activity against Serratia marcescens by broth dilution method; format: functional
Citrobacter freundii = assay: Antimicrobial activity against Citrobacter freundii by broth dilution method; format: functional
Burkholderia sp. = assay: Antimicrobial activity against Burkholderia sp. by broth dilution method; format: functional
Pseudomonas aeruginosa [18] = assay: Antimicrobial activity against Pseudomonas aeruginosa BA(C2-107) selected after 25 ug/ml of compound exposure by broth dilution method; format: functional
[19] = test system: Stenotrophomonas maltophilia; assay: Antimicrobial activity against Stenotrophomonas maltophilia 1AC736 assessed as number of passages required for MIC to rise above 4 times original MIC; format: functional
Acinetobacter junii = assay: Antimicrobial activity against Acinetobacter junii 15218 assessed as number of passages required for MIC to rise above 4 times original MIC; format: functional
Acinetobacter baumannii [20] = assay: Antimicrobial activity against Acinetobacter baumannii HPA74510 assessed as number of passages required for MIC to rise above 4 times original MIC; format: functional
Pseudomonas aeruginosa [21] = assay: Antimicrobial activity against Pseudomonas aeruginosa 527 assessed as number of passages required for MIC to rise above 4 times original MIC; format: functional
Pseudomonas aeruginosa [22] = assay: Antimicrobial activity against Pseudomonas aeruginosa BA assessed as number of passages required for MIC to rise above 4 times original MIC; format: functional
Klebsiella pneumoniae [23] = assay: Antimicrobial activity against Klebsiella pneumoniae 1338665 assessed as number of passages required for MIC to rise above 4 times original MIC; format: functional
Klebsiella pneumoniae [24] = assay: Antimicrobial activity against Klebsiella pneumoniae YC harboring beta-lactamase KPC-2,TEM-1and SHV-2 by broth dilution method; format: functional
Acinetobacter baumannii [25] = assay: Antimicrobial activity against Acinetobacter baumannii HPA74510 harboring beta-lactamase IMP-4 by broth dilution method; format: functional
Pseudomonas aeruginosa [26] = assay: Antimicrobial activity against Pseudomonas aeruginosa 621 assessed as number of passages required for MIC to rise above 4 times original MIC; format: functional
[27] = test system: Stenotrophomonas maltophilia; assay: Antimicrobial activity against Stenotrophomonas maltophilia B715 harboring beta-lactamase L1and L2 by broth dilution method; format: functional
Serratia marcescens [28] = assay: Antimicrobial activity against Serratia marcescens 1T9 harboring beta-lactamase Class C by broth dilution method; format: functional
Klebsiella pneumoniae [29] = assay: Antimicrobial activity against Klebsiella pneumoniae 1357E harboring beta-lactamase TEM-10 by broth dilution method; format: functional
Escherichia coli [30] = assay: Antimicrobial activity against Escherichia coli HB101 harboring beta-lactamase TEM-5 by broth dilution method; format: functional
Enterobacter cloacae [31] = assay: Antimicrobial activity against Enterobacter cloacae 908R harboring beta-lactamase AmpC by broth dilution method; format: functional
Klebsiella pneumoniae [32] = assay: Antimicrobial activity against Klebsiella pneumoniae CRE harboring beta-lactamase KPC-2 by broth dilution method; format: functional
Acinetobacter baumannii [33] = assay: Antimicrobial activity against Acinetobacter baumannii HPA 327009 harboring beta-lactamase OXA-25 by broth dilution method; format: functional
Klebsiella pneumoniae [34] = assay: Antimicrobial activity against Klebsiella pneumoniae 26768WU harboring beta-lactamase SHV-5 by broth dilution method; format: functional
Enterobacter cloacae [35] = assay: Antimicrobial activity against Enterobacter cloacae S9369 assessed as number of passages required for MIC to rise above 4 times original MIC; format: functional
Pseudomonas aeruginosa [36] = assay: microbe, parasite or virus in culture; conditions: BA
Description: Antimicrobial activity against Pseudomonas aeruginosa BA harboring beta-lactamase Class C by broth dilution method

Escherichia coli [37] = assay: Antimicrobial activity against Escherichia coli A harboring beta-lactamase CTX-M 15 by broth dilution method; format: functional
Escherichia coli [38] = assay: Antimicrobial activity against Escherichia coli CF102 harboring beta-lactamase TEM-3 by broth dilution method; format: functional
Pseudomonas aeruginosa [39] = assay: Antimicrobial activity against Pseudomonas aeruginosa HPA10586 harboring beta-lactamase VIM-1 by broth dilution method; format: functional
Pseudomonas aeruginosa [40] = assay: Antimicrobial activity against Pseudomonas aeruginosa HPA996 harboring beta-lactamase VIM-2 by broth dilution method; format: functional
Serratia marcescens [41] = assay: Antimicrobial activity against Serratia marcescens S6 harboring beta-lactamase SME-1.AmpC by broth dilution method; format: functional
Escherichia coli [42] = assay: Antimicrobial activity against Escherichia coli nmcA harboring beta-lactamase NMCA by broth dilution method; format: functional
Providencia rettgeri [43] = assay: Antimicrobial activity against Providencia rettgeri J96 harboring beta-lactamase IMP-1 by broth dilution method; format: functional
Acinetobacter baumannii [44] = assay: Antimicrobial activity against Acinetobacter baumannii HPA 4737 harboring beta-lactamase OXA-26 by broth dilution method; format: functional
Pseudomonas aeruginosa [45] = assay: Antimicrobial activity against Pseudomonas aeruginosa 1937E harboring beta-lactamase PSE-4 and class C enzymes by broth dilution method; format: functional
Acinetobacter baumannii [46] = assay: Antimicrobial activity against Acinetobacter baumannii HPA I-16 harboring beta-lactamase OXA-27 by broth dilution method; format: functional
Pseudomonas aeruginosa [47] = assay: Antimicrobial activity against Pseudomonas aeruginosa HPA101-1477 harboring beta-lactamase IMP-1 by broth dilution method; format: functional
Pseudomonas aeruginosa [48] = assay: Antimicrobial activity against Pseudomonas aeruginosa 1973E harboring beta-lactamase PSE-1 and class C enzymes by broth dilution method; format: functional
Enterobacter cloacae [49] = assay: Antimicrobial activity against Enterobacter cloacae S4741B assessed as number of passages required for MIC to rise above 4 times original MIC; format: functional
Escherichia coli [50] = assay: Antimicrobial activity against Escherichia coli K802N harboring beta-lactamase TEM-3 by broth dilution method; format: functional
Escherichia coli [51] = assay: Antimicrobial activity against Escherichia coli Libyien harboring beta-lactamase CMY-2 by broth dilution method; format: functional
Pseudomonas aeruginosa [52] = assay: microbe, parasite or virus in culture; conditions: 18S/H
Description: Antimicrobial activity against Pseudomonas aeruginosa 18S/H harboring beta-lactamase Class C by broth dilution method

Klebsiella oxytoca [53] = assay: Antimicrobial activity against Klebsiella oxytoca 1028E harboring beta-lactamase K1 by broth dilution method; format: functional

CC(C)(O/N=C(\C(=O)N[C@@H]1C(=O)N2C(C(=O)[O-])=C(C[n+]3ccccc3)CS[C@H]12)c1csc(N)n1)C(=O)O [CEFTAZIDIME]
4 mg/L: MIC (Pseudomonas aeruginosa [5])
1 mg/L: MIC50 (Providencia rettgeri [7]) | MIC50 (Klebsiella oxytoca [8]) | MIC50 (Providencia stuartii) | MIC (Pseudomonas aeruginosa [13]) | MIC50 (Serratia marcescens [17])
≤ 0.06 mg/L: MIC (Proteus penneri) | MIC50 (Proteus penneri) | MIC (Proteus vulgaris) | MIC50 (Proteus vulgaris) | MIC (Proteus mirabilis) | MIC50 (Proteus mirabilis)
8 mg/L: MIC90 (Klebsiella oxytoca [8]) | MIC90 (Burkholderia sp.)
32 mg/L: MIC50 (Acinetobacter sp.) | MIC50 (Escherichia coli [12])
> 32 mg/L: MIC50 (Klebsiella pneumoniae [2]) | MIC90 (Klebsiella pneumoniae [2]) | MIC90 (Enterobacter cloacae [6]) | MIC90 (Providencia rettgeri [7]) | MIC90 (Providencia stuartii) | MIC50 (Klebsiella aerogenes) | MIC90 (Klebsiella aerogenes) | MIC90 (Acinetobacter sp.) | MIC90 (Pseudomonas aeruginosa [11]) | MIC90 (Escherichia coli [12]) | MIC (Citrobacter freundii) | MIC50 (Citrobacter freundii) | MIC90 (Citrobacter freundii)
16 mg/L: MIC90 [3] | MIC50 (Enterobacter cloacae [6]) | MIC50 (Pseudomonas aeruginosa [11]) | MIC (Pseudomonas aeruginosa [15])
0.5 mg/L: MIC (Pseudomonas aeruginosa [10]) | MIC (Pseudomonas aeruginosa [14]) | MIC (Pseudomonas aeruginosa [16])
2 mg/L: MIC (Pseudomonas aeruginosa [1]) | MIC50 [3] | MIC (Pseudomonas aeruginosa [4]) | MIC90 (Serratia marcescens [17]) | MIC50 (Burkholderia sp.) | MIC (Pseudomonas aeruginosa [18])
0.25 mg/L: MIC90 (Proteus penneri) | MIC (Pseudomonas aeruginosa [9]) | MIC90 (Proteus vulgaris) | MIC90 (Proteus mirabilis)

O=C(O)c1cn(C2CC2)c2cc(N3CCNCC3)c(F)cc2c1=O [CIPROFLOXACIN]
≤ 0.06 mg/L: MIC (Pseudomonas aeruginosa [10]) | MIC (Pseudomonas aeruginosa [14]) | MIC (Pseudomonas aeruginosa [16])
inactive: Activity [19] | Activity (Acinetobacter baumannii [20]) | Activity (Klebsiella pneumoniae [23])
1 mg/L: MIC (Pseudomonas aeruginosa [9])
2 passages: Activity (Pseudomonas aeruginosa [22])
3 passages: Activity (Pseudomonas aeruginosa [21])
12 passages: Activity (Acinetobacter junii)

C[C@@H](O)[C@H]1C(=O)N2C(C(=O)O)=C(SCCNC=N)C[C@H]12 [IMIPENEM ANHYDROUS]
> 32 mg/L: MIC (Klebsiella pneumoniae [24]) | MIC [3] | MIC50 [3] | MIC90 [3] | MIC [27] | MIC (Klebsiella pneumoniae [32]) | MIC (Acinetobacter baumannii [33]) | MIC90 (Pseudomonas aeruginosa [11]) | MIC (Pseudomonas aeruginosa [39]) | MIC (Pseudomonas aeruginosa [40]) | MIC (Serratia marcescens [41]) | MIC (Escherichia coli [42]) | MIC (Providencia rettgeri [43]) | MIC (Acinetobacter baumannii [44]) | MIC (Acinetobacter baumannii [46]) | MIC (Pseudomonas aeruginosa [47]) | MIC90 (Burkholderia sp.)
8 mg/L: MIC90 (Proteus penneri) | MIC90 (Proteus vulgaris) | MIC90 (Proteus mirabilis) | MIC90 (Serratia marcescens [17])
inactive: Activity (Pseudomonas aeruginosa [26]) | Activity [19] | Activity (Pseudomonas aeruginosa [21])
4 passages: Activity (Pseudomonas aeruginosa [22])
0.5 mg/L: MIC (Klebsiella pneumoniae [29]) | MIC (Escherichia coli [38]) | MIC90 (Escherichia coli [12]) | MIC (Klebsiella oxytoca [53])
1 mg/L: MIC (Pseudomonas aeruginosa [1]) | MIC50 (Klebsiella pneumoniae [2]) | MIC (Pseudomonas aeruginosa [5]) | MIC (Serratia marcescens [28]) | MIC90 (Klebsiella oxytoca [8]) | MIC (Enterobacter cloacae [31]) | MIC (Klebsiella pneumoniae [34]) | MIC (Pseudomonas aeruginosa [36]) | MIC (Pseudomonas aeruginosa [14]) | MIC (Pseudomonas aeruginosa [15]) | MIC50 (Citrobacter freundii) | MIC (Escherichia coli [51]) | MIC (Pseudomonas aeruginosa [18])
4 mg/L: MIC90 (Enterobacter cloacae [6]) | MIC50 (Providencia rettgeri [7]) | MIC50 (Proteus penneri) | MIC (Pseudomonas aeruginosa [9]) | MIC50 (Providencia stuartii) | MIC50 (Pseudomonas aeruginosa [11]) | MIC50 (Proteus vulgaris) | MIC50 (Proteus mirabilis) | MIC (Pseudomonas aeruginosa [52])
1 passages: Activity (Acinetobacter baumannii [20])
9 passages: Activity (Enterobacter cloacae [35])
32 mg/L: MIC (Pseudomonas aeruginosa [4]) | MIC90 (Acinetobacter sp.) | MIC (Escherichia coli [50]) | MIC50 (Burkholderia sp.)
2 mg/L: MIC50 (Enterobacter cloacae [6]) | MIC50 (Klebsiella aerogenes) | MIC (Pseudomonas aeruginosa [10]) | MIC (Pseudomonas aeruginosa [13]) | MIC (Pseudomonas aeruginosa [45]) | MIC (Pseudomonas aeruginosa [16]) | MIC (Pseudomonas aeruginosa [48]) | MIC50 (Serratia marcescens [17]) | MIC90 (Citrobacter freundii)
0.25 mg/L: MIC (Escherichia coli [30]) | MIC50 (Klebsiella oxytoca [8]) | MIC50 (Acinetobacter sp.) | MIC (Escherichia coli [37]) | MIC50 (Escherichia coli [12])
17 passages: Activity (Acinetobacter junii)
16 mg/L: MIC90 (Klebsiella pneumoniae [2]) | MIC (Acinetobacter baumannii [25]) | MIC90 (Providencia rettgeri [7]) | MIC90 (Providencia stuartii) | MIC90 (Klebsiella aerogenes)
3 passages: Activity (Enterobacter cloacae [49])
2 passages: Activity (Klebsiella pneumoniae [23])
